Experimental data as given in PubChem BioAssay (NCI).
Several values for one entry are separate records, joined by “and”; a condition that tells them apart may be missing. Equal entries are not always repeated.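 A five-concentration, 48-hour dose response in 96-well plates underlies each endpoint, interpolated linearly between surrounding concentrations. The concentration for 50% growth inhibition is given as GI50. At the TGI there is no net growth.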

Tests used:
Assay in all cases: NCI-60 cell line screen, 48 h
HOP-92 NSCLC = test system: HOP-92 NSCLC
LOX IMVI melanoma = test system: LOX IMVI melanoma
MDA-MB-435 = test system: MDA-MB-435
NCI-H226 lung = test system: NCI-H226 lung
NCI-H23 lung = test system: NCI-H23 lung
OVCAR-8 ovarian = test system: OVCAR-8 ovarian
RXF 393 renal = test system: RXF 393 renal
SR leukemia = test system: SR leukemia
SW-620 colon = test system: SW-620 colon
TK-10 renal = test system: TK-10 renal

O=C1COc2c(CCNCCN(C(=O)CCNCCc3ccc(Cl)c(Cl)c3)C3CCCCC3)ccc(O)c2N1 gave a GI50 (HOP-92 NSCLC) of under 0.0353 µM, a TGI (HOP-92 NSCLC) of 17.5 µM and a GI50 (LOX IMVI melanoma) of 15.6 µM. It also gave a TGI (LOX IMVI melanoma) of 30.2 µM, a GI50 (MDA-MB-435) of 14.9 µM and a TGI (MDA-MB-435) of 28.5 µM. It also gave a GI50 (NCI-H226 lung) of 17.7 µM, a TGI (NCI-H226 lung) of 35.9 µM and a GI50 (NCI-H23 lung) of 18.1 µM. It also gave a TGI (NCI-H23 lung) of 33.9 µM, a GI50 (OVCAR-8 ovarian) of 17.2 µM and a TGI (OVCAR-8 ovarian) of 34 µM. For the same compound, the GI50 (RXF 393 renal) was 14.8 µM, the TGI (RXF 393 renal) was 30.7 µM and the GI50 (SR leukemia) was 12.2 µM. For the same compound, the TGI (SR leukemia) was 33.7 µM, the GI50 (SW-620 colon) was 16 µM and the TGI (SW-620 colon) was 31 µM. It also gave a GI50 (TK-10 renal) of 14.1 µM and a TGI (TK-10 renal) of 28.8 µM.

In the case of COC(=O)C(NC(=O)c1ccccc1)c1ccc(OC)c(I)c1 (stereo not given), the GI50 (HOP-92 NSCLC) is reported as 58.6 µM, the TGI (HOP-92 NSCLC) is reported as over 100 µM and the GI50 (LOX IMVI melanoma) is reported as 46.9 µM. For the same compound, the TGI (LOX IMVI melanoma) was over 100 µM, the GI50 (MDA-MB-435) was 39.6 µM and the TGI (MDA-MB-435) was over 100 µM. For the same compound, the GI50 (NCI-H226 lung) was over 100 µM, the TGI (NCI-H226 lung) was over 100 µM and the GI50 (OVCAR-8 ovarian) was over 100 µM. It also gave a TGI (OVCAR-8 ovarian) of over 100 µM, a GI50 (RXF 393 renal) of over 100 µM and a TGI (RXF 393 renal) of over 100 µM. For the same compound, the GI50 (SR leukemia) was 35.2 µM, the TGI (SR leukemia) was over 100 µM and the GI50 (SW-620 colon) was over 100 µM. It also gave a TGI (SW-620 colon) of over 100 µM, a GI50 (TK-10 renal) of 38.5 µM and a TGI (TK-10 renal) of over 100 µM.

CS(=O)(=O)Nc1ccc(Nc2c3ccccc3nc3cc(Cl)ccc23)cc1 showed a GI50 (HOP-92 NSCLC) of 0.334 µM, a TGI (HOP-92 NSCLC) of 4.7 µM and a GI50 (LOX IMVI melanoma) of 0.406 µM. For the same compound, the TGI (LOX IMVI melanoma) was 4.79 µM, the GI50 (MDA-MB-435) was 3.48 µM and the TGI (MDA-MB-435) was 17.1 µM. It also gave a GI50 (NCI-H226 lung) of 0.672 µM, a TGI (NCI-H226 lung) of 6.17 µM and a GI50 (NCI-H23 lung) of 1.67 µM. The TGI (NCI-H23 lung) was 18.9 µM, the GI50 (OVCAR-8 ovarian) was 1.76 µM and the TGI (OVCAR-8 ovarian) was 15.6 µM. It also gave a GI50 (RXF 393 renal) of 1.77 µM, a TGI (RXF 393 renal) of 10.6 µM and a GI50 (SR leukemia) of 0.177 µM. It also gave a TGI (SR leukemia) of 16 µM, a GI50 (SW-620 colon) of 0.686 µM and a TGI (SW-620 colon) of 15.4 µM. It also gave a GI50 (TK-10 renal) of 5.07 µM and a TGI (TK-10 renal) of 18.7 µM.

For COc1cc2nccc(Oc3ccc(NC(=O)C4(C(=O)Nc5ccc(F)cc5)CC4)cc3)c2cc1OC, the TGI (HOP-92 NSCLC) was 8.01 µM and 1.46 µM, the GI50 (LOX IMVI melanoma) was 6.11 µM and 2.61 µM and the TGI (LOX IMVI melanoma) was > 10 µM and 15.2 µM. The GI50 (MDA-MB-435) was 7.54 µM and 2.67 µM, the TGI (MDA-MB-435) was > 10 µM and 21.2 µM and the GI50 (NCI-H226 lung) was 2.29 µM and 1.7 µM. The TGI (NCI-H226 lung) was > 10 µM and 5.52 µM, the GI50 (NCI-H23 lung) was > 10 µM and 2.83 µM and the TGI (NCI-H23 lung) was over 100 µM. For the same compound, the GI50 (OVCAR-8 ovarian) was > 10 µM and 5.74 µM, the TGI (OVCAR-8 ovarian) was over 100 µM and the GI50 (RXF 393 renal) was > 10 µM and 2.17 µM. For the same compound, the TGI (RXF 393 renal) was > 10 µM and 6.93 µM, the GI50 (SR leukemia) was > 10 µM and 2.21 µM and the TGI (SR leukemia) was over 23.7 µM. For the same compound, the GI50 (SW-620 colon) was 9.09 µM and 2.38 µM, the TGI (SW-620 colon) was over 34.5 µM and the GI50 (TK-10 renal) was > 10 µM and 3.76 µM. For the same compound, the TGI (TK-10 renal) was > 10 µM and 39.5 µM.

For CCc1c[nH]c2ncnc(N3CC[C@](N)(CNC(=O)c4ccc(F)cc4F)C3)c12, the GI50 (HOP-92 NSCLC) was 0.23 µM, the TGI (HOP-92 NSCLC) was 7.57 µM and the GI50 (LOX IMVI melanoma) was 26.2 µM. It also gave a TGI (LOX IMVI melanoma) of over 100 µM, a GI50 (MDA-MB-435) of 12.8 µM and a TGI (MDA-MB-435) of over 79.7 µM. The GI50 (NCI-H226 lung) was 5.75 µM, the TGI (NCI-H226 lung) was over 77.7 µM and the GI50 (NCI-H23 lung) was 18.6 µM. It also gave a TGI (NCI-H23 lung) of over 100 µM, a GI50 (OVCAR-8 ovarian) of 28.2 µM and a TGI (OVCAR-8 ovarian) of over 100 µM. It also gave a GI50 (RXF 393 renal) of 0.244 µM, a TGI (RXF 393 renal) of 8.02 µM and a GI50 (SR leukemia) of 2.19 µM. For the same compound, the TGI (SR leukemia) was over 66.3 µM, the GI50 (SW-620 colon) was 23.1 µM and the TGI (SW-620 colon) was over 100 µM. The GI50 (TK-10 renal) was 1.27 µM and the TGI (TK-10 renal) was 50.4 µM.

c1csc(-c2[nH]nc3c2CCc2ccccc2-3)c1 showed a GI50 (HOP-92 NSCLC) of 1.88 µM, a TGI (HOP-92 NSCLC) of 20.4 µM and a GI50 (LOX IMVI melanoma) of 15.7 µM. The TGI (LOX IMVI melanoma) was 29.4 µM, the GI50 (MDA-MB-435) was 19.2 µM and the TGI (MDA-MB-435) was 42.6 µM. For the same compound, the GI50 (NCI-H226 lung) was 13.5 µM, the TGI (NCI-H226 lung) was 42.2 µM and the GI50 (NCI-H23 lung) was 16.1 µM. For the same compound, the TGI (NCI-H23 lung) was 42.9 µM, the GI50 (OVCAR-8 ovarian) was 18.7 µM and the TGI (OVCAR-8 ovarian) was 56.8 µM. It also gave a GI50 (RXF 393 renal) of 16.9 µM, a TGI (RXF 393 renal) of 37.4 µM and a GI50 (SR leukemia) of 21.9 µM. It also gave a TGI (SR leukemia) of 66.3 µM, a GI50 (SW-620 colon) of 20.3 µM and a TGI (SW-620 colon) of 46.1 µM. For the same compound, the GI50 (TK-10 renal) was 0.862 µM and the TGI (TK-10 renal) was 61.6 µM.

With O=C(Nc1cccc(C(F)(F)F)c1)Nc1cc(S(=O)(=O)NC2CC2)ccc1-c1ccsc1 the GI50 (HOP-92 NSCLC) was 1.73 µM, the TGI (HOP-92 NSCLC) was 7.45 µM and the GI50 (LOX IMVI melanoma) was 4.5 µM. For the same compound, the TGI (LOX IMVI melanoma) was 16.9 µM, the GI50 (MDA-MB-435) was 3.61 µM and the TGI (MDA-MB-435) was 13.1 µM. It also gave a GI50 (NCI-H226 lung) of 4.82 µM, a TGI (NCI-H226 lung) of 19 µM and a GI50 (NCI-H23 lung) of 4.03 µM. For the same compound, the TGI (NCI-H23 lung) was 16.6 µM, the GI50 (OVCAR-8 ovarian) was 4.07 µM and the TGI (OVCAR-8 ovarian) was 18.1 µM. For the same compound, the GI50 (RXF 393 renal) was 4.98 µM, the TGI (RXF 393 renal) was 18.8 µM and the GI50 (SR leukemia) was 2.72 µM. The TGI (SR leukemia) was 8.92 µM, the GI50 (SW-620 colon) was 4.45 µM and the TGI (SW-620 colon) was 18.5 µM. It also gave a GI50 (TK-10 renal) of 4.65 µM and a TGI (TK-10 renal) of 17.2 µM.

O=C(COC(=O)[C@H](C[Se][Se]C[C@H](NC(=O)c1ccc(Br)cc1F)C(=O)OCC(=O)c1ccc(F)cc1)NC(=O)c1ccc(Br)cc1F)c1ccc(F)cc1 showed a GI50 (HOP-92 NSCLC) of 2.73 µM, a TGI (HOP-92 NSCLC) of 6.66 µM and a GI50 (LOX IMVI melanoma) of 1.48 µM. For the same compound, the TGI (LOX IMVI melanoma) was 3.67 µM, the GI50 (MDA-MB-435) was 1.89 µM and the TGI (MDA-MB-435) was 4.3 µM. It also gave a GI50 (NCI-H226 lung) of 1.02 µM, a TGI (NCI-H226 lung) of 3.63 µM and a GI50 (NCI-H23 lung) of 0.692 µM. For the same compound, the TGI (NCI-H23 lung) was 2.7 µM, the GI50 (OVCAR-8 ovarian) was 0.408 µM and the TGI (OVCAR-8 ovarian) was 1.61 µM. It also gave a GI50 (RXF 393 renal) of 0.422 µM, a TGI (RXF 393 renal) of 1.5 µM and a GI50 (SR leukemia) of 0.92 µM. The TGI (SR leukemia) was over 43.5 µM, the GI50 (SW-620 colon) was 0.878 µM and the TGI (SW-620 colon) was 2.43 µM. For the same compound, the GI50 (TK-10 renal) was 0.341 µM and the TGI (TK-10 renal) was 0.9 µM.

CC(C)C12CCC3(CCC4C(C)(C(=O)O)CCCC4(C)C3C1)C(CN)C2 (stereo not given) gave a TGI (HOP-92 NSCLC) of over 100 µM, a TGI (LOX IMVI melanoma) of 34.7 µM and a TGI (MDA-MB-435) of over 100 µM. For the same compound, the TGI (NCI-H226 lung) was over 100 µM, the TGI (NCI-H23 lung) was 72.1 µM and the TGI (OVCAR-8 ovarian) was over 100 µM. For the same compound, the TGI (RXF 393 renal) was over 100 µM, the TGI (SR leukemia) was 60.1 µM and the TGI (SW-620 colon) was over 100 µM. The TGI (TK-10 renal) was over 100 µM.

With Clc1ccc(N=CNc2ccc(-c3nc4ccccc4[nH]3)cc2)cc1 the GI50 (HOP-92 NSCLC) was 59.1 µM, the TGI (HOP-92 NSCLC) was over 100 µM and the GI50 (LOX IMVI melanoma) was 1.37 µM. The TGI (LOX IMVI melanoma) was 24.8 µM, the GI50 (MDA-MB-435) was 6.88 µM and the TGI (MDA-MB-435) was over 100 µM. The GI50 (NCI-H226 lung) was 65.4 µM, the TGI (NCI-H226 lung) was over 100 µM and the GI50 (OVCAR-8 ovarian) was 64.1 µM. For the same compound, the TGI (OVCAR-8 ovarian) was over 100 µM, the GI50 (RXF 393 renal) was over 100 µM and the TGI (RXF 393 renal) was over 100 µM. The GI50 (SR leukemia) was 39.6 µM, the TGI (SR leukemia) was over 100 µM and the GI50 (SW-620 colon) was over 100 µM. It also gave a TGI (SW-620 colon) of over 100 µM, a GI50 (TK-10 renal) of 7.52 µM and a TGI (TK-10 renal) of over 100 µM.
